For test [1], the system named is PTPN2. Briefly: HiBiT-Degradation B16F10.4 PTPN2. The note with it: B16F10.4 cells, 24.0 hours. The class given is cell-based. On the technique in general: The HiBiT peptide binds its large partner to form an active luciferase.
The target of test [2] is T1, PTPN2 (Homo sapiens, UniProt P17706).
T1 construct: expressed in transfected cells; host or cells: 293T (293T.109 HiBiT-PTPN2 line; parental 293T WT from ATCC)
T1 sequence (P17706 1-415): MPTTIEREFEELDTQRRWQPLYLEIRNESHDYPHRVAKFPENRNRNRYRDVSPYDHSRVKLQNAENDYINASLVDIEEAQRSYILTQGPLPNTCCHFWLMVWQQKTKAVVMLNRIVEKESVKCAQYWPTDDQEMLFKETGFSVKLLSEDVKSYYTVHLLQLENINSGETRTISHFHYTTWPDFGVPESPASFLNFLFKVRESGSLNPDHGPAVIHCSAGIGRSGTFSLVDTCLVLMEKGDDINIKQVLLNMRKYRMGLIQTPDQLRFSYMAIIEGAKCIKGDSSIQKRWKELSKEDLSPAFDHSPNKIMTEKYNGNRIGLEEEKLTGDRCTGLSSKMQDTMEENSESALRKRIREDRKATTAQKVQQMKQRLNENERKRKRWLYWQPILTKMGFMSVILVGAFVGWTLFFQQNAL
The experiment in a line: HiBiT-Degradation 293T.109 PTPN2 (Nano-Glo HiBiT Lytic Assay). The class given is cell-based. The note with it: 293T.109 (HiBiT-PTPN2) cells, 24.0 hours. The text has this: Dulbecco's modified Eagle medium (DMEM) without phenol red and fetal bovine serum (FBS) were purchased from Gibco (Grand Island, NY, USA). Nano-Glo® HiBIT Lytic Assay System was purchased from Promega (Madison, WI, USA). 293T.109 (HiBiT-PTPN2) cell line was generated by ectopically expressing PTPN2 with N-terminal HiBiT fusion tag in 293T WT cell line purchased from ATCC (Manassas, VA, USA). Cell culture flasks and 384-well microplates were acquired from VWR (Radnor, PA, USA).
PTPN2 degradation was determined based on quantification of luminescent signal using Nano-Glo® HiBIT Lytic Assay kit. Test compounds were added to the 384-well plate from a top concentration of 10 μM with 11 points, half log titration in duplicates. 293T.109 cells were added into 384-well plates at a cell density of 5000 cells per well. The plates were kept at 37° C. with 5% CO2 for 24 hours. The cells treated in the absence of the test compound were the negative control and the cells without Nano-Glo® HiBiT Lytic reagent were the positive control. After 24-hour incubation, Nano-Glo® HiBIT Lytic Assay reagents were added to the cells. Luminescence was acquired on EnVision™ Multilabel Reader (PerkinElmer, Santa Clara, CA, USA).

For 19 molecules, DC50 results are on record in patent publication US20240383886A1, “Protein Tyrosine Phosphatase Degraders and Methods of Use Thereof” (CALICO LIFE SCIENCES LLC, priority 2019, published 2024).

Molecules are shown by their SMILES. A value given as a limit tells only on which side of the number the result lay.

What is called DC50 is the concentration at which degradation of the target reaches its halfway point.

For `Cn1c(=O)n(C2CCC(=O)NC2=O)c2ccc(N3CCC(CC(=O)N4CC=C(c5ccc6cc(O)c(N7CC(=O)NS7(=O)=O)c(F)c6c5)C4)CC3)cc21` (centres unmarked) [Example 103, 3-[5-[4-[2-[3-[8-fluoro-6-hydroxy-7-(1,1,4-trioxo-1,2,5-thiadiazolidin-2-yl)-2-naphthyl]-2,5-dihydropyrrol-1-yl]-2-oxo-ethyl]-1-piperidyl]-3-methyl-2-oxo-benzimidazol-1-yl]piperidine-2,6-dione], the 50% degradation concentration (DC50) in test [1] was 50 to 200 nM; in test [2], 200 to 1000 nM.

For `Cn1c(=O)n(C2CCC(=O)NC2=O)c2ccc(N3CCN(CCn4cc(-c5ccc6cc(O)c(N7CC(=O)NS7(=O)=O)c(F)c6c5)cn4)CC3)cc21` (centres unmarked) [Example 110, 3-[5-[4-[2-[4-[8-fluoro-6-hydroxy-7-(1,1,4-trioxo-1,2,5-thiadiazolidin-2-yl)-2-naphthyl]pyrazol-1-yl]ethyl]piperazin-1-yl]-3-methyl-2-oxo-benzimidazol-1-yl]piperidine-2,6-dione], the results for the DC50 in test [1] and in test [2] were 50 to 200 nM and 10 to 50 nM, respectively.

As to `Cn1c(=O)n(C2CCC(=O)NC2=O)c2ccc(C3CCN(CCN4CC=C(c5ccc6cc(O)c(N7CC(=O)NS7(=O)=O)c(F)c6c5)CC4)CC3)cc21` (centres unmarked) [Example 121, 3-[5-[1-[2-[4-[8-fluoro-6-hydroxy-7-(1,1,4-trioxo-1,2,5-thiadiazolidin-2-yl)-2-naphthyl]-3,6-dihydro-2H-pyridin-1-yl]ethyl]-4-piperidyl]-3-methyl-2-oxo-benzimidazol-1-yl]piperidine-2,6-dione], the DC50 in test [1] lay within 50 to 200 nM; in test [2] it was 10 to 50 nM.

In the case of `O=C(CN1CCC(c2ccc3c(c2)oc(=O)n3C2CCC(=O)NC2=O)CC1)NCCOc1ccc2cc(O)c(N3CC(=O)NS3(=O)=O)c(F)c2c1` (centres unmarked) [Example 5, 2-[4-[3-(2,6-dioxo-3-piperidyl)-2-oxo-1,3-benzoxazol-6-yl]-1-piperidyl]-N-[2-[[8-fluoro-6-hydroxy-7-(1,1,4-trioxo-1,2,5-thiadiazolidin-2-yl)-2-naphthyl]oxy]ethyl]acetamide], the DC50 in test [1] is no less than 1000 nM; in test [2] it was 50 to 200 nM.

Take `Cn1c(=O)n(C2CCC(=O)NC2=O)c2ccc(C3CCN(CCn4cc(-c5ccc6c(F)c(N7CC(=O)NS7(=O)=O)c(O)cc6c5)cn4)CC3)cc21` (centres unmarked) [Example 122, 3-[5-[1-[2-[4-[5-fluoro-7-hydroxy-6-(1,1,4-trioxo-1,2,5-thiadiazolidin-2-yl)-2-naphthyl]pyrazol-1-yl]ethyl]-4-piperidyl]-3-methyl-2-oxo-benzimidazol-1-yl]piperidine-2,6-dione]: the figures for the DC50 in test [1] and in test [2] were 200 to 1000 nM and 10 to 50 nM, respectively.

Regarding `Cn1c(=O)n(C2CCC(=O)NC2=O)c2cccc(OC3CCN(CC(=O)NCCOc4ccc5cc(O)c(N6CC(=O)NS6(=O)=O)c(F)c5c4)CC3)c21` (centres unmarked) [Example 9, 2-[4-[1-(2,6-dioxo-3-piperidyl)-3-methyl-2-oxo-benzimidazol-4-yl]oxy-1-piperidyl]-N-[2-[[8-fluoro-6-hydroxy-7-(1,1,4-trioxo-1,2,5-thiadiazolidin-2-yl)-2-naphthyl]oxy]ethyl]acetamide], the half-maximal degradation concentration (DC50) in test [1] fell in the range of 200 to 1000 nM; in test [2], 50 to 200 nM.

On to `Cn1nc(C2CCC(=O)NC2=O)c2ccc(N3CCC(CC(=O)Nc4ccc5c(F)c(N6CC(=O)NS6(=O)=O)c(O)cc5c4)CC3)cc21` (centres unmarked) [Example 167, 2-[1-[3-(2,6-dioxo-3-piperidyl)-1-methyl-indazol-6-yl]-4-piperidyl]-N-[5-fluoro-7-hydroxy-6-(1,1,4-trioxo-1,2,5-thiadiazolidin-2-yl)-2-naphthyl]acetamide], for which the DC50 in test [1] and in test [2] was 50 to 200 nM in each case.

For the molecule `CCn1c(=O)n(C2CCC(=O)NC2=O)c2ccc(C3CCN(CC(=O)Nc4ccc5c(F)c(N6CC(=O)NS6(=O)=O)c(O)cc5c4)CC3)cc21` (centres unmarked) [Example 174, N-(6-(1,1-dioxido-4-oxo-1,2,5-thiadiazolidin-2-yl)-5-fluoro-7-hydroxynaphthalen-2-yl)-2-(4-(1-(2,6-dioxopiperidin-3-yl)-3-ethyl-2-oxo-2,3-dihydro-1H-benzo[d]imidazol-5-yl)piperidin-1-yl)acetamide], the values for the 50% degradation concentration (DC50) in test [1] and in test [2] were 50 to 200 nM and 10 to 50 nM, respectively.

With `O=C(CN1CC(n2cc(CNc3cccc4c3C(=O)N(C3CCC(=O)NC3=O)C4=O)nn2)C1)NCCOc1ccc2cc(O)c(N3CC(=O)NS3(=O)=O)c(F)c2c1` (centres unmarked) [Example 42], the 50% degradation concentration (DC50) in test [1] is no less than 1000 nM; in test [2], 200 to 1000 nM.

With `O=C1CCC(N2C(=O)c3cccc(NCc4cccc(C(=O)Nc5ccc6c(F)c(N7CC(=O)NS7(=O)=O)c(O)cc6c5)c4)c3C2=O)C(=O)N1` (centres unmarked) [Example 61], the DC50 in test [1] was no less than 1000 nM; in test [2], 200 to 1000 nM.

As for `Cn1c(=O)n([C@H]2CCC(=O)NC2=O)c2ccc(C3CCN(CC(=O)NCCOc4ccc5cc(O)c(N6CC(=O)NS6(=O)=O)c(F)c5c4)CC3)cc21` [Example 93, 2-[4-[1-[(3S)-2,6-dioxo-3-piperidyl]-3-methyl-2-oxo-benzimidazol-5-yl]-1-piperidyl]-N-[2-[[8-fluoro-6-hydroxy-7-(1,1,4-trioxo-1,2,5-thiadiazolidin-2-yl)-2-naphthyl]oxy]ethyl]acetamide], the DC50 in test [1] is 50 to 200 nM; in test [2], 10 to 50 nM.

Take `Cn1c(=O)n(C2CCC(=O)NC2=O)c2cccc(C3CCN(CC(=O)NCCOc4ccc5cc(O)c(N6CC(=O)NS6(=O)=O)c(F)c5c4)CC3)c21` (centres unmarked) [Example 33]: the DC50 in test [1] was no less than 1000 nM; in test [2] it was 200 to 1000 nM.

Turning to `Cn1c(=O)n(C2CCC(=O)NC2=O)c2ccc([C@H]3CC[C@H](CC(=O)Nc4ccc5c(F)c(N6CC(=O)NS6(=O)=O)c(O)cc5c4)CC3)cc21` (single isomer, unassigned) [Example 81b, N-(6-(1,1-dioxido-4-oxo-1,2,5-thiadiazolidin-2-yl)-5-fluoro-7-hydroxynaphthalen-2-yl)-2-((1r,4r)-4-(1-(2,6-dioxopiperidin-3-yl)-3-methyl-2-oxo-2,3-dihydro-1H-benzo[d]imidazol-5-yl)cyclohexyl)acetamide], the DC50 in test [1] lay in the range of 200 to 1000 nM; in test [2], 10 to 50 nM.

Regarding `Cn1c(=O)n(C2CCC(=O)NC2=O)c2ccc(C3CCN(C(=O)CCC(=O)NCCOc4ccc5cc(O)c(N6CC(=O)NS6(=O)=O)c(F)c5c4)CC3)cc21` (centres unmarked) [Example 30], the DC50 in test [1] and in test [2] was no less than 1000 nM each time.

As to `O=C1CCC(N2Cc3cc(NCC(=O)N4CCC(C(=O)NCCOc5ccc6cc(O)c(N7CC(=O)NS7(=O)=O)c(F)c6c5)CC4)ccc3C2=O)C(=O)N1` (centres unmarked) [Example 35], the DC50 in test [1] and in test [2] was 200 to 1000 nM in each case.

In the case of `Cn1c(=O)n(C2CCC(=O)NC2=O)c2ccc(C3CCN(CCNc4ccc5c(F)c(N6CC(=O)NS6(=O)=O)c(O)cc5c4)CC3)cc21` (centres unmarked) [Example 52], the DC50 in test [1] and in test [2] was no less than 1000 nM in each case.

Turning to `O=C1CCC(n2c(=O)oc3cc(C4CCN(CC(=O)Nc5ccc6c(F)c(N7CC(=O)NS7(=O)=O)c(O)cc6c5)CC4)ccc32)C(=O)N1` (centres unmarked) [Example 23, 2-[4-[3-(2,6-dioxo-3-piperidyl)-2-oxo-1,3-benzoxazol-6-yl]-1-piperidyl]-N-[5-fluoro-7-hydroxy-6-(1,1,4-trioxo-1,2,5-thiadiazolidin-2-yl)-2-naphthyl]acetamide], the DC50 is 50 to 200 nM in test [1] and 10 to 50 nM in test [2].

`Cn1nc(C2CCC(=O)NC2=O)c2ccc(N3CCC(O)(CC(=O)Nc4ccc5c(F)c(N6CC(=O)NS6(=O)=O)c(O)cc5c4)CC3)cc21` (centres unmarked) [Example 83, 2-[1-[3-(2,6-dioxo-3-piperidyl)-1-methyl-indazol-6-yl]-4-hydroxy-4-piperidyl]-N-[5-fluoro-7-hydroxy-6-(1,1,4-trioxo-1,2,5-thiadiazolidin-2-yl)-2-naphthyl]acetamide]: the DC50 in test [1] was 10 to 50 nM; in test [2] it was less than 10 nM.

In the case of `Cn1c(=O)n(C2CCC(=O)NC2=O)c2ccc(C3CCN(CC(=O)N4CC(Nc5ccc6cc(O)c(N7CC(=O)NS7(=O)=O)c(F)c6c5)C4)CC3(F)F)cc21` (centres unmarked) [Example 171, 3-(5-(1-(2-(3-((7-(1,1-dioxido-4-oxo-1,2,5-thiadiazolidin-2-yl)-8-fluoro-6-hydroxynaphthalen-2-yl)amino)azetidin-1-yl)-2-oxoethyl)-3,3-difluoropiperidin-4-yl)-3-methyl-2-oxo-2,3-dihydro-1H-benzo[d]imidazol-1-yl)piperidine-2,6-dione], the DC50 in test [1] and in test [2] was 50 to 200 nM throughout.
